The text below walks through data of PMC6251811 (Acta Pharmaceutica Sinica. B, 2018).

The subject of test [1] is type-I interferon signaling pathway. The test is described as follows: SEAP reporter gene assay in HEK-Blue IFNα/β cells stimulated with IFN-α2a. In kind it is cell-based. As to conditions: Homo sapiens. (In general: A reporter such as luciferase makes a cellular process visible.)
For test [2], the system named is Phospho-STAT1 (Tyr701). The test is described as follows: Western blot of STAT1 phosphorylation in HEK-Blue IFNα/β cells after IFN-α2a. In kind it is cell-based, human. The settings on record: niclosamide 10 μmol/L (Fig. 5B, Fig. S2).
The next test deals with STAT3 phosphorylation. As to conditions: concentrations below 10 μmol/L; cited from earlier work.
Test [3] deals with Phospho-STAT1 (Tyr701). Description: Western blot of STAT1 phosphorylation in SH-SY5Y cells after IFN-α2a. In kind it is cell-based, human. The settings on record: niclosamide 10 μmol/L (Fig. 6B). In general terms: Immunoblotting shows a protein as a band on a membrane.
The subject of a further test is IRF7 mRNA. The test is described as follows: IRF7 mRNA quantitative PCR in SH-SY5Y cells. The settings on record: positive control niclosamide, IFN-α2a 1 h. In kind it is cell-based, human.

Broadly, the IC50 is the midpoint of a concentration-inhibition curve. Lower therefore signals greater potency in that assay. In turn, `O=C(Nc1ccc([N+](=O)[O-])cc1Cl)c1cc(Cl)ccc1O` [niclosamide, Niclosamide] registered an IC50 in test [1] of 370 nM. For the same compound, the “effect on STAT1 phosphorylation” value with Phospho-STAT1 (Tyr701) [2] and in the test with Phospho-STAT1 (Tyr701) [3] was “also inhibited STAT1 phosphorylation” each time. For the same compound, the “effect on STAT phosphorylation” value in the test with STAT3 phosphorylation is “only inhibit STAT3 phosphorylation”. Moreover, the “IRF7 level after compound plus IFN-α2a” value in the test with IRF7 mRNA worked out at 0.84±0.07 folds.
